We go through 5 compounds from publication PMC12676205, “New Se‐Compounds With Antileishmanial, Antitumor, and Carbonic Anhydrase Inhibitory Properties” (Archiv Der Pharmazie, 2025).

A value given as a limit tells only on which side of the number the result lay.

For data set [1], the system named is breast cancer cell line HS 578 T. Briefly: NCI-60 five-dose assay, HS 578 T. The format is cell-based, human. To be noted: 48 h; for GI50: Homo sapiens, Hs-578T. As for the experimental part: (§1) All the compounds were selected for further testing since they fulfilled the set NCI one‐dose screening parameters for threshold inhibition. They were tested at five different concentrations (0.01, 0.1, 1, 10, and 100 μM) for 48 h against the same cell line panel and the dose–response curves along with three response parameters (50% growth inhibitory concentration [GI50], the 50% lethal concentration [LC50], and the total growth inhibition [TGI]) were calculated for every cancer cell line. The full reported data and corresponding graphs are compiled in Supporting Information S1. Average values of GI50, TGI, and LC50 values of all the reported selenoesters in all the subpanels are represented in Figure 4.
(§2) All the reported selenoesters (1–6) were submitted to the DTP of NCI. First, they were screened at a single dose (10^−5 M) against a panel of 60 cancer cell lines derived from different tumor types following the methodology available (https://dtp.cancer.gov/discovery_development/nci-60/methodology.htm). As all the compounds satisfied the threshold inhibition criteria established, they were further assessed at five concentrations (0.01, 0.1, 1, 10, and 100 µM) against the same cell panel to obtain their corresponding dose–response curves and three antitumor parameters (GI50, TGI, and LC50) by regression. GraphPad Prism 7.0 Software was used to represent the corresponding graphs.

In the next data set the test system is HOP‐62. The data set can be described thus: NCI-60 five-dose assay, HOP-62. The class given is cell-based. To be noted: Homo sapiens, 48 h. On the procedure: as §1, §2
For another data set, the system named is MALME‐3M. The data set can be described thus: NCI-60 five-dose assay, MALME-3M. The class given is cell-based. To be noted: Homo sapiens, 48 h. As for the experimental part:
as §1, §2

The test system of data set [2] is A498 renal‐resistant cells. Briefly: NCI-60 five-dose assay, A498. The class given is cell-based. The settings on record: Homo sapiens, 48 h. On the procedure:
as §1, §2

Data set [3] deals with OVCAR‐5 ovarian cancer cells. Briefly: NCI-60 five-dose assay, OVCAR-5. The class given is cell-based, human. To be noted: 48 h. On the procedure:
as §1, §2

The nature of data set [4]: THP-1 cytotoxicity (MTT, PMA-differentiated macrophages). The class given is cell-based, human. The settings on record: human, THP-1 cells differentiated into macrophages with PMA, mean ± SD. As for the experimental part: (§3) The synthesized compounds were tested for their antileishmanial activity against promastigotes of L. major and L. infantum at four concentrations (1, 10, 50, and 100 µM) for 48 h using the 3‐(4,5‐dimethylthiazol‐2‐yl)‐2,5‐diphenyltetrazolium bromide (MTT) assay. In this evaluation, the activity was expressed in IC50 (concentration inhibiting the parasite growth by 50%). […] The CC50 was defined as the concentration of selenoesters that led to a reduction in the viability of the macrophages, such that only 50% of the cells survived when compared to the control group. This cell line, derived from the blood of a human with acute monocytic leukemia, was chosen as it has been widely reported that it resembles tissue macrophages to various extents as well as supports the infection by numerous Leishmania promastigotes. The selectivity indexes (SIs) were calculated as the ratio between toxicity on macrophages (THP‐1 cells)/antileishmanial activity. The data for standard control drugs (miltefosine and paromomycin) are included for comparison purposes.
(§4) THP‐1 cells were seeded at a concentration of 8 × 10^4 cells per well in 96‐well plates and incubated with phorbol 12‐myristate 13‐acetate (PMA) (50 ng/mL) for 72 h (37°C and 5% CO2) to differentiate them into macrophages. After that, the culture medium was removed and the cells were treated with the reported selenoesters at different increasing concentrations ranging from 1 to 200 µM for 48 h at 37°C and 5% of CO2. Macrophages treated with DMSO (1%) were used as controls, and the compounds were dissolved in DMSO at a stock concentration of 10^−2 M. Afterward, the MTT assay was performed. Data were obtained from three independent experiments performed in triplicate. The absorbance was measured at 550 nm using a MultiskanEX photometric plate reader for microplates. The CC50 values were calculated using OriginPro 8.5.1. software by nonlinear curve fitting. SIs were calculated as the ratio of the CC50 values determined for the macrophages and the IC50 values obtained in each Leishmania promastigote. GraphPad Prism 7.0 Software was used to obtain the corresponding graphs.

Another data set relates to HL‐60(TB) cells. The data set can be described thus: NCI-60 one-dose screen, HL-60(TB). The format is cell-based, human. To be noted: 10 µM, 48 h. On the procedure: (§5) To explore the potential antiproliferative properties of the newly synthesized derivatives, they were submitted to the National Cancer Institute's (NCI) Developmental Therapeutics Program (DTP) for screening at 10 μM in a panel of approximately 60 human cancer cell lines from different cancer types. The results are reported as the growth percentage (GP), which is the growth of the treated cells with each compound for 48 h compared to the untreated controls (Figure 2). […] The initial screening results are summarized in Figure 2, and the mean GP values of each subpanel are depicted in Figure 3. The full reports are compiled in the Supplementary Section.
as §2

The subject of data set [5] is HT29 colon cancer cell line. The data set can be described thus: NCI-60 one-dose screen, HT29. The settings on record: 10 µM, 48 h. The format is cell-based, human. As for the experimental part: as §5, §2
Another data set has as its system THP‐1 cells. Briefly: THP-1 cytotoxicity (MTT, PMA-differentiated macrophages). To be noted: 48 h, mean ± SD. The format is cell-based, human. As for the experimental part: as §3, §4

With `O=C(C[Se]C(=O)c1ccccc1)Nc1ccc([N+](=O)[O-])c(C(F)(F)F)c1` [Compound 2, Se‐(2‐((4‐nitro‐3‐(trifluoromethyl)phenyl)amino)‐2‐oxoethyl)benzoselenoate], the “TGI HS 578 T” value in [1] came out at 890 nM. Further, the GI50 worked out at 280 nM in data set [1], 860 nM in the data set on HOP‐62, 830 nM with MALME‐3M and 800 nM in data set [2].

Consider `O=C(C[Se]C(=O)c1ccco1)Nc1ccc([N+](=O)[O-])c(C(F)(F)F)c1` [Compound 5, Se‐(2‐((4‐nitro‐3‐(trifluoromethyl)phenyl)amino)‐2‐oxoethyl)furan‐2‐carboselenoate], for which the “cytotoxicity against OVCAR‐5” value in data set [3] is reported as “remarkable cytotoxicity”. In addition, in data set [4], it took 108000 ± 5530 nM to reach half-maximal cytotoxicity (CC50 at 48 h).

As to `O=C(C[Se]C(=O)c1ccco1)Nc1cccc(OC(F)(F)F)c1` [Compound 6, Se‐(2‐oxo‐2‐((3‐(trifluoromethoxy)phenyl)amino)ethyl)furan‐2‐carboselenoate], the “behaviour in HL‐60(TB)” value with HL‐60(TB) cells was “cytotoxic behavior”. The compound also returned a 50% cytotoxic concentration (CC50) at 48 h in [4] of 38700 ± 6710 nM.

For `N#Cc1ccc(NC(=O)C[Se]C(=O)c2ccccc2)cc1C(F)(F)F` [Compound 1, Se‐(2‐((4‐cyano‐3‐(trifluoromethyl)phenyl)amino)‐2‐oxoethyl)benzoselenoate], the GI50 in data set [1] is 640 nM; in data set [2], 890 nM.

For the compound `O=C(C[Se]C(=O)c1ccccc1)Nc1cccc(OC(F)(F)F)c1` [Compound 3, Se‐(2‐oxo‐2‐((3‐(trifluoromethoxy)phenyl)amino)ethyl)benzoselenoate], the “behaviour in HT29” value in data set [5] was “potent cytotoxic activity”. For the same compound, the CC50 in the data set on THP‐1 cells was more than 200000 nM. Also, in data set [4], the 50% cytotoxic concentration (CC50) at 48 h is not below 200000 nM.

Broadly, the GI50 is the concentration at which growth is held to half of that of the control. A high value points to less potent growth inhibition. As usually defined, the CC50 is the concentration giving 50% cytotoxicity.
